Values of other authors, collected in patent US20250144250A1, “PH-SENSITIVE FLUOROPHORES” (The General Hospital Corporation, priority 2022, published 2025).

Conditions: in DMSO; cited from earlier work

CC1(C)C(/C=C/C=C/C=C/C=C2\N(CCCCS(=O)(=O)O)c3ccc4ccccc4c3C2(C)C)=[N+](CCCCS(=O)(=O)[O-])c2ccc3ccccc3c21 [ICG, indocyanine green]
fluorescence QY of calibration standard: 13%
